Data published in patent US20230085307A1, “PYRIDAZINONE COMPOUND AND HERBICIDE” (NISSAN CHEMICAL CORPORATION, priority 2019, published 2023).

Assays:
[1] = system: late watergrass; assay: Test Example 2: herbicidal activity, application during weed generation under submerged conditions (Table 17, symbol A); assay type: in vivo, late watergrass (Echinochloa oryzicola); settings: AAH 320 g/ha; application during weed generation, submerged conditions
How it was run: (§1)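 Steps: fill Wagner pots with alluvial soil; add water to give 4 cm depth; sow the species mixed; grow under glass at 25–30° C.; at 1–2 leaves apply water-diluted emulsion formulation to the water surface at a fixed herbicide amount; score after 3 weeks.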

[2] = system: Japanese bulrush; assay: Test Example 2: herbicidal activity, application during weed generation under submerged conditions (Table 17, symbol B); assay type: in vivo, Japanese bulrush (Schoenoplectus juncoides); settings: AAH 320 g/ha; application during weed generation, submerged conditions
How it was run: as §1

[3] = system: barnyard grass; assay: Test Example 3: herbicidal effect by foliage application, Wagner pot (Table 18, symbol H); assay type: in vivo, barnyard grass (Echinochloa crus-galli); settings: 320 g/ha
How it was run: (§2)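 Plants were sown in alluvial soil held under 0.1–0.5 cm standing water and grown 14 days in a greenhouse at 25–30 °C. An emulsifiable formulation, water-diluted to the set dose, was then sprayed onto the foliage, and effects were scored three weeks later using previously defined criteria.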

[4] = system: rice flat sedge; assay: Test Example 3: herbicidal effect by foliage application, Wagner pot (Table 18, symbol E); assay type: in vivo, rice flat sedge (Cyperus iria); settings: 320 g/ha
How it was run: as §2

[5] = system: southern crabgrass; assay: Test Example 4: herbicidal effect by soil treatment (Table 19, symbol F); assay type: in vivo, southern crabgrass (Digitaria ciliaris); settings: 320 g/ha
How it was run: (§3)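 Three weeks of greenhouse growth at 25° C. to 30° C. followed a uniform surface spray of water-diluted emulsion at a predetermined herbicide amount. Seeds had been sown beforehand under about 1.5 cm of sterilized diluvial soil. Grading followed criteria set out in an earlier test.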

[6] = system: green foxtail; assay: Test Example 4: herbicidal effect by soil treatment (Table 19, symbol G); assay type: in vivo, green foxtail (Setaria viridis); settings: 320 g/ha
How it was run: as §3

[7] = system: barnyard grass; assay: Test Example 4: herbicidal effect by soil treatment (Table 19, symbol H); assay type: in vivo, barnyard grass (Echinochloa crus-galli); settings: 320 g/ha
How it was run: as §3

[8] = system: wild oat; assay: Test Example 4: herbicidal effect by soil treatment (Table 19, symbol I); assay type: in vivo, wild oat (Avena fatua); settings: 320 g/ha
How it was run: as §3

[9] = system: Italian ryegrass; assay: Test Example 4: herbicidal effect by soil treatment (Table 19, symbol K); assay type: in vivo, Italian ryegrass (Lolium multiflorum); settings: 320 g/ha
How it was run: as §3

[10] = system: velvetleaf; assay: Test Example 4: herbicidal effect by soil treatment (Table 19, symbol M); assay type: in vivo, velvetleaf (Abutilon theophrasti); settings: 320 g/ha
How it was run: as §3

[11] = system: redroot pigweed; assay: Test Example 4: herbicidal effect by soil treatment (Table 19, symbol N); assay type: in vivo, redroot pigweed (Amaranthus retroflexus); settings: 320 g/ha
How it was run: as §3

[12] = system: lambsquarters; assay: Test Example 4: herbicidal effect by soil treatment (Table 19, symbol O); assay type: in vivo, lambsquarters (Chenopodium album); settings: 320 g/ha
How it was run: as §3

[13] = system: chickweed; assay: Test Example 4: herbicidal effect by soil treatment (Table 19, symbol P); assay type: in vivo, common chickweed (Stellaria media); settings: 320 g/ha
How it was run: as §3

[14] = system: southern crabgrass; assay: Test Example 5: herbicidal effect by foliage application, plastic box (Table 20, symbol F); assay type: in vivo, southern crabgrass (Digitaria ciliaris); settings: foliage application, 320 g/ha, evaluated three weeks after application
How it was run: (§4)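 Plants sown in sterilized diluvial soil and grown 14 days in a greenhouse at 25° C to 30° C, then sprayed on the foliage with the compound's emulsion diluted in water to a predetermined herbicide amount. Injury to weeds and crops scored three weeks after application on a visual rating scale.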

[15] = system: barnyard grass; assay: Test Example 5: herbicidal effect by foliage application, plastic box (Table 20, symbol H); assay type: in vivo, barnyard grass (Echinochloa crus-galli); settings: foliage application, 320 g/ha, evaluated three weeks after application
How it was run: as §4

[16] = system: wild oat; assay: Test Example 5: herbicidal effect by foliage application, plastic box (Table 20, symbol I); assay type: in vivo, wild oat (Avena fatua); settings: foliage application, 320 g/ha, evaluated three weeks after application
How it was run: as §4

[17] = system: blackgrass; assay: Test Example 5: herbicidal effect by foliage application, plastic box (Table 20, symbol J); assay type: in vivo, blackgrass (Alopecurus myosuroides); settings: foliage application, 320 g/ha, evaluated three weeks after application
How it was run: as §4

[18] = system: Italian ryegrass; assay: Test Example 5: herbicidal effect by foliage application, plastic box (Table 20, symbol K); assay type: in vivo, Italian ryegrass (Lolium multiflorum); settings: foliage application, 320 g/ha, evaluated three weeks after application
How it was run: as §4

[19] = system: windgrass; assay: Test Example 5: herbicidal effect by foliage application, plastic box (Table 20, symbol L); assay type: in vivo, windgrass (Apera spica-venti); settings: foliage application, 320 g/ha, evaluated three weeks after application
How it was run: as §4

[20] = system: redroot pigweed; assay: Test Example 5: herbicidal effect by foliage application, plastic box (Table 20, symbol N); assay type: in vivo, redroot pigweed (Amaranthus retroflexus); settings: foliage application, 320 g/ha, evaluated three weeks after application
How it was run: as §4

[21] = system: lambsquarters; assay: Test Example 5: herbicidal effect by foliage application, plastic box (Table 20, symbol O); assay type: in vivo, lambsquarters (Chenopodium album); settings: foliage application, 320 g/ha, evaluated three weeks after application
How it was run: as §4

[22] = system: persian speedwell; assay: Test Example 5: herbicidal effect by foliage application, plastic box (Table 20, symbol R); assay type: in vivo, Persian speedwell (Veronica persica); settings: foliage application, 320 g/ha, evaluated three weeks after application
How it was run: as §4

SMILES | herbicidal effect rating, A: late watergrass [1] | herbicidal effect rating, B: Japanese bulrush [2] | herbicidal effect on H (barnyard grass), rating 0-5 [3] | herbicidal effect on E (rice flat sedge), rating 0-5 [4] | herbicidal effect rating, F: southern crabgrass [5] | herbicidal effect rating, G: green foxtail [6] | herbicidal effect rating, H: barnyard grass [7] | herbicidal effect rating, I: wild oat [8] | herbicidal effect rating, K: Italian ryegrass [9] | herbicidal effect rating, M: velvetleaf [10] | herbicidal effect rating, N: redroot pigweed [11] | herbicidal effect rating, O: lambsquarters [12] | herbicidal effect rating, P: chickweed [13] | herbicidal effect on F: southern crabgrass [14] | herbicidal effect on H: barnyard grass [15] | herbicidal effect on I: wild oat [16] | herbicidal effect on J: blackgrass [17] | herbicidal effect on K: Italian ryegrass [18] | herbicidal effect on L: windgrass [19] | herbicidal effect on N: redroot pigweed [20] | further results
CON=C(C)c1ccc(-c2sc3ccc(F)cc3c2-c2c(O)c(C)nn(C)c2=O)cc1 [2-079] | 0 (Herbicidal rate of 5% or less (almost no effect)) | 0 (Herbicidal rate of 5% or less (almost no effect)) | 5 (Herbicidal rate of 90% or more (almost completely withered)) | 5 (Herbicidal rate of 90% or more (almost completely withered)) | 5 (Herbicidal rate of 90% or more (almost completely withered)) | 5 (Herbicidal rate of 90% or more (almost completely withered)) | 4 (Herbicidal rate of 70% or more and less than 90%) | 0 (Herbicidal rate of 5% or less (almost no effect)) | 4 (Herbicidal rate of 70% or more and less than 90%) | 4 (Herbicidal rate of 70% or more and less than 90%) | 5 (Herbicidal rate of 90% or more (almost completely withered)) | 5 (Herbicidal rate of 90% or more (almost completely withered)) | 2 (Herbicidal rate of 20% or more and less than 40%) | 5 (Herbicidal rate of 90% or more (almost completely withered)) | 5 (Herbicidal rate of 90% or more (almost completely withered)) | 5 (Herbicidal rate of 90% or more (almost completely withered)) | 3 (Herbicidal rate of 40% or more and less than 70%) | 5 (Herbicidal rate of 90% or more (almost completely withered)) | 5 (Herbicidal rate of 90% or more (almost completely withered)) | 5 (Herbicidal rate of 90% or more (almost completely withered)) | herbicidal effect on O: lambsquarters [21]: 5 (Herbicidal rate of 90% or more (almost completely withered)); herbicidal effect on R: persian speedwell [22]: 5 (Herbicidal rate of 90% or more (almost completely withered))
CCCC(=O)Oc1c(C)nn(C)c(=O)c1-c1c(-c2ccc(C(C)=NOC)cc2)sc2ccc(F)cc12 [2-080] | 2 (Herbicidal rate of 20% or more and less than 40%) | 4 (Herbicidal rate of 70% or more and less than 90%) | 5 (Herbicidal rate of 90% or more (almost completely withered)) | 5 (Herbicidal rate of 90% or more (almost completely withered)) | 2 (Herbicidal rate of 20% or more and less than 40%) | 1 (Herbicidal rate of 5% or more and less than 20%) | 2 (Herbicidal rate of 20% or more and less than 40%) | 0 (Herbicidal rate of 5% or less (almost no effect)) | 4 (Herbicidal rate of 70% or more and less than 90%) | 5 (Herbicidal rate of 90% or more (almost completely withered)) | 5 (Herbicidal rate of 90% or more (almost completely withered)) | 5 (Herbicidal rate of 90% or more (almost completely withered)) | 3 (Herbicidal rate of 40% or more and less than 70%) | 5 (Herbicidal rate of 90% or more (almost completely withered)) | 5 (Herbicidal rate of 90% or more (almost completely withered)) | 5 (Herbicidal rate of 90% or more (almost completely withered)) | 5 (Herbicidal rate of 90% or more (almost completely withered)) | 5 (Herbicidal rate of 90% or more (almost completely withered)) | 5 (Herbicidal rate of 90% or more (almost completely withered)) | 5 (Herbicidal rate of 90% or more (almost completely withered)) | herbicidal effect on O: lambsquarters [21]: 5 (Herbicidal rate of 90% or more (almost completely withered)); herbicidal effect on R: persian speedwell [22]: 5 (Herbicidal rate of 90% or more (almost completely withered))
CCOc1cc(F)ccc1-c1sc2ccc(F)cc2c1-c1c(O)c(C)nn(C)c1=O [2-084] | 2 (Herbicidal rate of 20% or more and less than 40%) | 1 (Herbicidal rate of 5% or more and less than 20%) | 5 (Herbicidal rate of 90% or more (almost completely withered)) | 5 (Herbicidal rate of 90% or more (almost completely withered)) | 5 (Herbicidal rate of 90% or more (almost completely withered)) | 4 (Herbicidal rate of 70% or more and less than 90%) | 4 (Herbicidal rate of 70% or more and less than 90%) | 2 (Herbicidal rate of 20% or more and less than 40%) | 3 (Herbicidal rate of 40% or more and less than 70%) | 3 (Herbicidal rate of 40% or more and less than 70%) | 5 (Herbicidal rate of 90% or more (almost completely withered)) | 5 (Herbicidal rate of 90% or more (almost completely withered)) | 4 (Herbicidal rate of 70% or more and less than 90%) | 4 (Herbicidal rate of 70% or more and less than 90%) | 5 (Herbicidal rate of 90% or more (almost completely withered)) | 4 (Herbicidal rate of 70% or more and less than 90%) | 5 (Herbicidal rate of 90% or more (almost completely withered)) | 3 (Herbicidal rate of 40% or more and less than 70%) | 4 (Herbicidal rate of 70% or more and less than 90%) | 5 (Herbicidal rate of 90% or more (almost completely withered)) | herbicidal effect on O: lambsquarters [21]: 3 (Herbicidal rate of 40% or more and less than 70%); herbicidal effect on R: persian speedwell [22]: 5 (Herbicidal rate of 90% or more (almost completely withered))
